Measured values reported in US9790211B2, “5-amino-quinoline-8-carboxamide derivatives as 5-HT4 receptor agonists” (SUVEN LIFE SCIENCES LIMITED, priority 2013, dated 2017).
Where two headings read alike, the source gives them in different places.

What was measured:
[1] = target: T1, recombinant human 5-HT4 receptor (Homo sapiens, UniProt Q13639); experiment: Determination of EC50 values for 5-HT4 receptor (CHO cells, pCRE-Luc reporter); assay type: cell-based; conditions: for Emax: CHO; for EC50: 4 hours incubation
T1 construct: expressed in transfected cells
Description: Determination of EC50 Values for 5-HT4 Receptor
A stable CHO cell line expressing recombinant human 5-HT4 receptor and pCRE-Luc reporter system was used for cell-based assay. The assay offers a non-radioactive based approach to determine binding of a compound to GPCRs. In this specific assay, the level of intracellular cyclic AMP, which is modulated by activation, or inhibition of the receptor is measured. The recombinant cells harbor luciferase reporter gene under the control of cAMP response element.
The above cells were grown in 96 well clear bottom white plates in Hams F12 medium containing 10% fetal bovine serum (FBS). Prior to the addition of compounds or standard agonist, cells were serum starved overnight. Increasing concentrations of test compounds were added in OptiMEM medium to the cells. The incubation was continued at 37° C. in CO2 incubator for 4 hours. Medium was removed and cells were washed with phosphate buffered saline. The cells were lysed and luciferase activity was measured in a Luminometer. Luminescence units were plotted against the compound concentrations using Graphpad software.

Male Wistar rats = experiment: Object recognition task model; assay type: in vivo; conditions: dose mg/kg: Ex 1 0.1, Ex 2 0.03, Ex 4 0.03, Ex 13 1, Ex 23 0.01, Ex 37 10, Ex 43 0.3
Description: The cognition enhancing properties of compounds of this invention were estimated by using this model.
Male Wistar rats (230-280 grams) were used as experimental animals. Four animals were housed in each cage. Animals were kept on 20% food deprivation before one day and given water ad libitum throughout the experiment and maintained on a 12 hours light/dark cycle. Also the rats were habituated to individual arenas for 1 hour in the absence of any objects.
One group of 12 rats received vehicle (1 mL/Kg) orally and another set of animals received compound of the formula (I) either orally or i.p., before one hour of the familiar (T1) and choice trial (T2).
The experiment was carried out in a 50×50×50 cm open field made up of acrylic. In the familiarization phase, (T1), the rats were placed individually in the open field for 3 minutes, in which two identical objects (plastic bottles, 12.5 cm height×5.5 cm diameter) covered in yellow masking tape alone (a1 and a2) were positioned in two adjacent corners, 10 cms from the walls. After 24 hours of the (T1) trial for long-term memory test, the same rats were placed in the same arena as they were placed in T1 trial. Choice phase (T2) rats were allowed to explore the open field for 3 minutes in presence of one familiar object (a3) and one novel object (b) (Amber color glass bottle, 12 cm high and 5 cm in diameter). Familiar objects presented similar textures, colors and sizes. During the T1 and T2 trial, explorations of each object (defined as sniffing, licking, chewing or having moving vibrissae whilst directing the nose towards the object at a distance of less than 1 cm) were recorded separately by stopwatch. Sitting on an object was not regarded as exploratory activity, however, it was rarely observed.
T1 is the total time spent exploring the familiar objects (a1+a2).
T2 is the total time spent exploring the familiar object and novel object (a3+b).
The object recognition test was performed as described by Behaviour Brain Research, (1988), 31, 47-59.

Aβ1-40 = experiment: Effect on CSF Aβ1-40 level (ELISA); assay type: in vivo, Male Sprague Dawley Rat; conditions: 50.0 mg/kg p.o., positive control
Description: (§1) The control group of male rats received a vehicle (reagent grade water) per orally by gavage at a dose volume of 10 mL/kg. The treated groups (6 rat per group) received a single dose of test compound (different doses) or DAPT (50.0 mg/kg). Two hour post dose of vehicle or test compounds, rats were anesthetized with isoflurane and CSF was collected from Cisterna magna using 0.5 mL syringes by utilizing stereotaxic frame. The CSF samples were frozen in liquid nitrogen and stored at −80° C. until ELISA was performed.
(§2) • 1. CSF samples were thawed to RT and diluted with Tris Buffer Saline containing protease inhibitors at 1:10 ratio 115:150 μL (15 μL CSI+135 μL TBS. • 2. To this diluted CSF samples 0.15 mL of EIA buffer (1:1 ratio) was added. These diluted samples were subjected for Aβ1-40 level measurement by ELISA. Measurement of Aβ1-40 by ELISA Kit:
To investigate the role of an acute treatment of test compound on Aβ1-40 levels, expression of this protein in CSF was measured in treated and untreated rat by ELISA assay. The entire procedure was followed as per ELISA kit manual (Mouse/Rat Amyloid-Aβ1-40 ELISA, Cat No: 27721, IBL International, Hamburg, Germany).
(§3) Statistical analysis was performed using the Graph Pad Prism (Version 4). Data are Mean±SD of Aβ1-40 levels expressed as percentage of control values (rat which received regent grade water). Values were compared between the different groups by using unpaired t test. The significance level was set at *p<0.05; **p<0.01; ***p<0.001.

Aβ1-42 = experiment: Effect on CSF Aβ1-42 level (ELISA); assay type: in vivo, Male Sprague Dawley Rat; conditions: 50.0 mg/kg p.o., positive control
Description: as §1, with “by puncturing” for “from”, “frame.” for “frame. The”
as §2, with “[15:150” for “115:150”, “CSF+ 135” for “CSI+135”, “TBS],” for “TBS.”, “Aβ1-42” for “Aβ1-40”
To investigate the role of an acute treatment of test compound on Aβ1-42 levels, expression of this protein was measured in CSF of treated and untreated rat by ELISA assay. The entire procedure was followed as described in ELISA kit manual (Mouse/Rat […], Cat No: 27720, IBL International, Hamburg, Germany).
as §3, with “analyses were” for “analysis was”, “Aβ1-42” for “Aβ1-40”, “by” for “by using”

[2] = CHO cells, human 5-HT4 receptor, luciferase reporter
[3] = CHO cells, human 5-HT4 receptor, luciferase reporter, read-out: Emax

T1 sequence (Q13639 whole entry): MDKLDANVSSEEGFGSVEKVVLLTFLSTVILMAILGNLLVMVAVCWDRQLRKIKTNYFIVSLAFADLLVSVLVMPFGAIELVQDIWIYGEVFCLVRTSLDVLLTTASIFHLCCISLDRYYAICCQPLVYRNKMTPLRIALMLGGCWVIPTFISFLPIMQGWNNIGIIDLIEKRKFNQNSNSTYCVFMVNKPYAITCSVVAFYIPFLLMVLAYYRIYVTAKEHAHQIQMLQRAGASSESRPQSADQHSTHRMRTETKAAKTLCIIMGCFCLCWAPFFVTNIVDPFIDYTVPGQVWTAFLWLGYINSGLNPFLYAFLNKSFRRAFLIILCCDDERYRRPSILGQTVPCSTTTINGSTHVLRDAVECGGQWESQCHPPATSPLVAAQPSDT

SMILES | Emax [1] | EC50 [1, 2] | Emax [1, 3] | other results
Nc1c(Cl)cc(C(=O)NCC2CCN(CC3CCOC3)CC2)c2ncccc12.O=C(O)C(O)C(O)C(=O)O (racemic) [Example 4, (R,S) 5-Amino-6-chloro-N-{[1-(tetrahydro-3-furanylmethyl)-4-piperidinyl]methyl} quinoline-8-carboxamide L(+)-tartarate] | 56% | 0.05 nM | – | Exploration time mean ± S.E.M, Familiar object (Male Wistar rats; choice trial T2, p.o.): 6.96 ± 1.02 s; Exploration time mean ± S.E.M, Novel object (Male Wistar rats; choice trial T2, p.o.): 12.37 ± 1.22 s; Inference (Male Wistar rats; p.o.): Active
C[C@H](NC(=O)Cc1cc(F)cc(F)c1)C(=O)N[C@H](C(=O)OC(C)(C)C)c1ccccc1 [DAPT, reference compound] | – | – | – | level of Aβ1-40 in rat CSF (in words) (Aβ1-40): significantly decreased; levels of Aβ1-42 in rat CSF (in words) (Aβ1-42): significantly decreased
CC(C)(F)CN1CCC(CNC(=O)c2cc(Cl)c(N)c3cccnc23)CC1 [Example 46, 5-Amino-6-chloro-N-{[1-(2-fluoro-2-methylpropyl)-4-piperidinyl]methyl}quinoline-8-carboxamide] | – | 0.1 nM | 58% | –
CC(C)(F)CN1CCC(F)(CNC(=O)c2cc(Cl)c(N)c3cccnc23)CC1 [Example 48, 5-Amino-6-chloro-N-{[4-fluoro-1-(2-fluoro-2-methylpropyl)-4-piperidinyl]methyl} quinoline-8-carboxamide] | – | 8.9 nM | 84% | –
Nc1c(Cl)cc(C(=O)NCC2C3CN(CCO)CC23)c2ncccc12 (centres unmarked) [Example 50, 5-Amino-6-chloro-N-{[3-(2-hydroxyethyl)-3-azabicyclo[3.1.0]hex-6-yl]methyl} quinoline-8-carboxamide] | – | 1.7 nM | 72% | –
Nc1c(Cl)cc(C(=O)NCC2C3CN(CCCO)CC23)c2ncccc12 (centres unmarked) [Example 51, 5-Amino-6-chloro-N-{[3-(3-hydroxypropyl)-3-azabicyclo[3.1.0]hex-6-yl]methyl} quinoline-8-carboxamide] | – | 1.4 nM | 85% | –
Nc1c(Cl)cc(C(=O)NCC2CCN(CCF)CC2)c2ncccc12 [Example 52, 5-Amino-6-chloro-N-{[1-(2-fluoroethyl)-4-piperidinyl]methyl}quinoline-8-carboxamide] | – | 0.41 nM | 63% | –
Nc1c(Cl)cc(C(=O)NCC2C3CN(CCF)CC23)c2ncccc12 (centres unmarked) [Example 53] | – | 4.5 nM | 65% | –
COCCCN1CC2C(CNC(=O)c3cc(Cl)c(N)c4cccnc34)C2C1 (stereo not drawn) [Example 54, 5-Amino-6-chloro-N-{[3-(3-methoxypropyl)-3-azabicyclo[3.1.0]hex-6-yl]methyl}quinoline-8-carboxamide L(+)-tartarate] | 70% | 0.7 nM | – | –
COCC(C)(C)CN1CCC(CNC(=O)c2cc(Cl)c(N)c3cccnc23)CC1 [Example 55, 5-Amino-6-chloro-N-{[1-(3-methoxy-2,2-dimethylpropyl)-4-piperidinyl]methyl}quinoline-8-carboxamide L(+)-tartarate] | 72% | 0.09 nM | – | –
